Test results as given in patent publication US20250268898A1, “METHODS OF TREATING SYNOVIAL SARCOMA PATHOGENESIS BY SUMO2 INHIBITION” (Sanford Burnham Prebys Medical Discovery Institute, priority 2024, published 2025).
Entries after “also recorded” stand apart in the source; their conditions may differ.

How the values were obtained:
SYO1 cells [1] = assay: CellTiter-Glo viability, 2D and 3D cultures; type: cell-based, human; settings: over 2, 3, and 4 days
Method: (§1) To investigate whether the reduction of proliferation by Compound 1 was due to apoptosis and necrosis in synovial sarcoma cell lines, flow cytometric analyses were performed with cells treated with Compound 1 and untreated cells stained with Annexin V-FITC apoptosis marker, as well as Propidium Iodide necrosis marker for cells in media containing Compound 1 and media only containing DMSO. The proliferation assay was performed using Cell Titer Glo Luminescent Cell Viability Assay (Promega). Cell numbers were optimized for 384-well plate for each cell line. SUMO2 inhibitors including Compound 1 were dissolved in DMSO and echo dotted onto a 384-well plate in varying concentrations, with the final concentration of DMSO at about 0.08% in each well. About 25 μL of cell suspension, a concentration of about 50,000 cells/mL were seeded in each well of a 384-well plate. […] Luminescence was recorded with a plate reader (BMG FLUOStar). The EC50 values were calculated by Graphpad Prism software. Apoptosis was quantified by flow cytometry using Annexin V-FITC kit from BD Biosciences. […] The samples were then analyzed by flow cytometry using Fortessa along with FlowJo analysis software. Cell lines analyzed were HS-SY-II (left) and SYO1 (right) (FIG. 3G). […]

SYO1 cells [2] = assay: Colony-forming assay (crystal violet); type: cell-based, human; settings: Compound 1 titration series
Method: Further testing of Compound 1 was performed on 2D and 3D cultures for SYO1 and Aska-SS cell lines to determine whether these culture conditions resist Compound 1 treatment.

SS18-SSX fusion = assay: Spike-in normalized CUT&RUN of SS18-SSX chromatin occupancy; type: cell-based, human
Method: Subsequent studies sought to determine the mechanism behind Compound 1 treatment and the observed attenuation of SS18-SSX expression activity. Initial studies utilizing Cleavage Under Targets & Release Using Nuclease (CUT&RUN) focused on determining whether Compound 1 affects the chromatin occupancy of the SS18-SSX fusion protein. […] Since increased H2AK119ub deposition has been linked to the pathogenic activity of the SS18-SSX fusions, H2AK119 ubiquitination was assessed in Compound 1-treated cells.

H2AK119ub [3] = assay: H2AK119ub immunoblotting; type: cell-based, human
H2AK119ub [4] = assay: ChIP-sequencing of H2AK119ub; type: cell-based, human
HS-SY-II cells = assay: Colony-forming assay (crystal violet); type: cell-based, human; settings: Compound 1 titration series
Aska-SS flank tumors = assay: Flank tumor xenograft in nude mice; type: in vivo
Method: (§2) To determine the antitumor activity of Compound 1 in vivo, either Aska-SS cells (harboring the SS18-SSX1 fusion) or SYO1 cells (harboring the SS18-SSX2 fusion) were injected into the flanks of nude mice. When tumors became palpable, mice were treated with 25 mg/kg of Compound 1 or vehicle.
(§3) Flank tumors were harvested, sectioned, and stained with hematoxylin and eosin and analyzed with IHC for tumoricidal markers.

SYO1 flank tumors = assay: Flank tumor xenograft in nude mice; type: in vivo
Method: as §2, §3

HS-SY-II and SYO1 cells = assay: Total RNA sequencing, Compound 1 vs DMSO; type: cell-based, human
Method: To comprehensively interrogate the transcriptomic changes occurring in synovial sarcoma cells, HS-SY-II and SYO1 cells were cultured in media containing DMSO and media containing Compound 1 and subjected to total RNA sequencing. HS-SY-II and SYO1 cells were contacted with either Compound 1 at concentrations of between about 25 nM and about 100 nM, or DMSO for 48 hours. The cell suspensions were pelleted, and RNA was extracted with varying concentrations. TRIzol Reagent was used to extract total RNA from SYO1, and HS-SY-II cell pellets, and strands were synthesized using Protoscript II (NEB) with poly A selection. qPCR was performed using TaqMan Gene Expression Master Mix and FAM probes for SUMO2, HPRT, and GAPDH. Paired-end (2×100 bp) sequencing was performed on the NovaSeq 6000 Sequencing System. Data Processing and QC was completed using FastQC and QC summarization was done by MultiQC. Mapping to human genome hg38 v84 was done using STAR sequence aligner, and expression was estimated using RSEM. DESeq2 was used for differential expression analysis, and IPA algorithm was used in evaluation of upstream pathway regulators.
The RNA-seq reads were analyzed for each sample to the human reference genome GRCh38 using STAR aligner. Expression estimation was conducted using RSEM followed by differential expression calling using DESeq2. For target genes of interest in both HS-SY-II and SYO1, a total of 960 differentially expressed target genes of interest (DEGs) were analyzed using […] (FIG. 4A).
Upregulation of target genes of interest activated by the chimeric SS18-SSX fusion protein in DMSO media and in media containing Compound 1 were mapped with size and […] (FDR) quantified, based on […] (NES) values (FIG. 4D). Expression of various target genes of interest, upregulation, and downregulation by SS18-SSX fusion genomes, were measured in contact with varying concentrations of Compound 1 (FIG. 4E). Heat maps were created mapping the various target genes of interest cultured in media containing only DMSO, compared to media containing Compound 1, for multiple samples (FIG. 4F-4G). Enrichment scores were calculated using gene set enrichment analysis for HS-SY-II cells in contact with DMSO and varying concentrations of Compound 1 for target genes of interest (FIG. 4H). Additional experiments comparing gene expression differences due to DMSO or Compound 1 on SYO-II and HS-SY-II cells were performed. Not only were SS18-SSX-regulated genes affected by Compound 1 treatment, but other genes also impacted included the HOX genes: HOXC6, HOXA10 as well as SRSF1 and TYMS. (FIG. 4I).

SS18-SSX1 protein = assay: Western blot for SS18-SSX fusion protein levels; type: cell-based, human
Method: shRNAs targeting SUMO2 were cloned into a tetracycline-inducible plasmid and expressed in HS-SYII cells. Small hairpin RNAs (shRNAs) for SUMO2 were cloned into the all-in-one-Tet vector and packaged into lentivirus using pMD and pPax2. A cell suspension containing about 300,000 HS-SY-II and SYO1 cells were seeded into six-well culture plates overnight for about 12-14 hours. Transfections were performed with Lipofectamine 2000 reagent. At about 48 hours after transfection, media was changed and puromycin selected for about 2 days. After selection, cells were subjected to a previously determined amount of doxycycline, about 4.5 μg/ml, for about 48 hours. Cells were harvested for qPCR quantification and western blot analysis.
The effect of Compound 1 was compared to the effect of SUMO2 knockdown by shRNA.

[5] = target: T1, Sumo-Activating Enzyme 1 (SAE1) or Sumo-Activating Enzyme 2 (SAE2) (Homo sapiens, UniProt Q9UBE0+Q9UBT2); assay: Interruption of the SUMO cycle (SAE inhibition); settings: E1 Ligase Activation step
T1 sequence (Q9UBE0 1-346): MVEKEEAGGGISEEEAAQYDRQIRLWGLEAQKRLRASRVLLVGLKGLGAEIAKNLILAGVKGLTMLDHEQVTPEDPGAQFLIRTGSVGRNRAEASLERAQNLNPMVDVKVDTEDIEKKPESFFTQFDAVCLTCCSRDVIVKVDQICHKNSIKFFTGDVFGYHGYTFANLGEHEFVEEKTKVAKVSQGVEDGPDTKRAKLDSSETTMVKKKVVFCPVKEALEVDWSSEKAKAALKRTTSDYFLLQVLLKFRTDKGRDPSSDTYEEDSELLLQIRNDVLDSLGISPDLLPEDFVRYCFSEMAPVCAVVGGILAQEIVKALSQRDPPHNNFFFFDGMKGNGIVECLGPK
T1 sequence (Q9UBT2 1-640): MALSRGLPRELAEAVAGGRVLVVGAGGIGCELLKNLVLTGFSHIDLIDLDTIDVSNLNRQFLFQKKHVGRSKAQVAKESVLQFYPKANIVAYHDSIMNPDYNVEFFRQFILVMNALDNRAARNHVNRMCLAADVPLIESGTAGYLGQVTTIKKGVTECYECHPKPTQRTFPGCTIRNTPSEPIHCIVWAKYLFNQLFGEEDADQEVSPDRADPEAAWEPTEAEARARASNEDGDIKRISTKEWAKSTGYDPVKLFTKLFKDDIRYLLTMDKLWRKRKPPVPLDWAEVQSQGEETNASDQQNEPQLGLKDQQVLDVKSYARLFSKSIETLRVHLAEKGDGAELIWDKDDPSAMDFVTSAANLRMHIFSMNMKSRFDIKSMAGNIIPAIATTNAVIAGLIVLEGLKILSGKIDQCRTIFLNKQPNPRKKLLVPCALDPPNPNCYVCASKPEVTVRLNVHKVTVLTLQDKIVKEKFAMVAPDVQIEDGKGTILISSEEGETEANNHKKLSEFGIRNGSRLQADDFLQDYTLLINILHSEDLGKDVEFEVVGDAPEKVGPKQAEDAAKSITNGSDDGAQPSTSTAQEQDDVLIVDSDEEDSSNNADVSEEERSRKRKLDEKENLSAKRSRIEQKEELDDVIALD

12273/99 cells = assay: Colony-forming assay (crystal violet); type: cell-based, human; settings: Compound 1 titration series
Aska-SS cells = assay: CellTiter-Glo viability, 2D and 3D cultures; type: cell-based; settings: over 2, 3, and 4 days
Method: as §1

[6] = 25 mg/kg, 3 intraperitoneal injections a week for 5 weeks, vs vehicle
[7] = Ki-67 staining of tumor sections, vs vehicle-treated tumors
[8] = harvested flank tumors, vs vehicle-treated tumors

SS18-SSX2 fusion genomic occupancy (SS18-SSX fusion; Compound 1-treated compared to vehicle-treated arms): substantial decrease
fusion-binding signal at synovial sarcoma target genes (meta-analysis) (SS18-SSX fusion; maximum signal centered around the transcription start site): reduction in the fusion binding
SMILES: Cc1sc(C(=O)c2cncnc2N[C@@H]2C[C@H](COS(N)(=O)=O)[C@@H](O)C2)cc1[C@@H]1NCCc2ccc(Cl)cc21 [Compound 1]
viability as measured by CellTiter-Glo (SYO1 cells [1]): progressive and marked decrease in viability; also recorded: affected in a Compound 1 concentration-dependent manner
colony formation (SYO1 cells [2]): dramatic and dose-dependent reduction in colony formation
SS18-SSX fusion occupancy at SS18-SSX-repressed target GADD45B (SS18-SSX fusion): diminished SS18-SSX fusion occupancy; also recorded: decrease of SS18-SSX occupation of this gene
SS18-SSX occupancy at SS18-SSX-activated targets HOXA10 and SOX8 (SS18-SSX fusion): lost SS18-SSX occupancy; also recorded: decrease of SS18-SSX occupation
reduction in genome-wide chromatin binding signal of the SS18-SSX fusion (FRiP) (SS18-SSX fusion; SYO1 cells, compared to DMSO treated cells): 1.87 fold
H2AK119ub by immunoblotting (H2AK119ub [3]; 1273/99 cell line): marked reduction
H2AK119ub by immunoblotting (H2AK119ub [3]; Aska cell line): marked reduction
H2AK119ub by immunoblotting (H2AK119ub [3]; HS-SY-II cell line): marked reduction
H2AK119ub by immunoblotting (H2AK119ub [3]; SYO1 cell line): marked reduction
H2AK119ub at GADD45B (H2AK119ub [4]): reduced H2AK119ub
reduction of genome-wide H2AK119ub levels (FRiP) (H2AK119ub [4]; SYO1 cells, versus DMSO-treated): 1.53 fold
H2AK119ub genome-wide (H2AK119ub [4]; compared to DMSO-treated cells): substantial reduction
colony formation (HS-SY-II cells): dramatic and dose-dependent reduction in colony formation
tumor growth (Aska-SS flank tumors; [6]): reduction of tumor growth
tumor volumes (Aska-SS flank tumors; [6]): significantly reduced
tumor weights (Aska-SS flank tumors; [6]): significantly reduced
decrease in Ki67 positivity (Aska-SS flank tumors; [7]): ~60%
number of cells per unit area (tumor cellularity, hematoxylin and eosin) (Aska-SS flank tumors; [8]): marked reduction
tumor growth (SYO1 flank tumors; [6]): reduction of tumor growth
tumor volumes (SYO1 flank tumors; [6]): significantly reduced
tumor weights (SYO1 flank tumors; [6]): significantly reduced
decrease in Ki67 positivity (SYO1 flank tumors; [7]): ~60%
number of cells per unit area (tumor cellularity, hematoxylin and eosin) (SYO1 flank tumors; [8]): marked reduction
expression of GADD45B (HS-SY-II and SYO1 cells): increased expression (de-repression); also recorded: increase in its expression
expression of HOXA10 and SOX8 (HS-SY-II and SYO1 cells): reduced expression
expression of key cancer-associated genes upregulated by the SySa fusion (CDX2, HOXA10, SUZ12, TYMS, AURKB, HOXC10, SMC2) (HS-SY-II and SYO1 cells; HS-SY-II and SYO1, vs DMSO): downregulated
expression of HOXC6, HOXA10, SRSF1 and TYMS (HS-SY-II and SYO1 cells; SYO1 and HS-SY-II cells, vs DMSO): impacted
expression of SS18-SSX-regulated genes (HS-SY-II and SYO1 cells; SYO-II and HS-SY-II cells, vs DMSO): affected
levels of SS18-SSX1 protein (SS18-SSX1 protein; HS-SY-II cell line): reduction in the levels
levels of SS18-SSX1 fusion (SS18-SSX1 protein; SYO1 cell lines): reduction in the levels
interruption of the SUMO cycle [5]: interrupt the SUMO cycle at the E1 Ligase Activation step
colony formation (12273/99 cells): dramatic and dose-dependent reduction in colony formation
viability as measured by CellTiter-Glo (Aska-SS cells): progressive and marked decrease in viability; also recorded: affected in a Compound 1 concentration-dependent manner
